Consider 14 compounds from article PMC9945734 (BMC Medicine, 2023).

Where two headings read alike, the source gives them in different places.

The test system of the assay is PC-3-KQ cells. Description: 3D spheroid invasion assay and screening of FDA-approved drugs. Format: cell-based, human. The following applies: compared to vehicle control; for activity at 0.01 µM / activity at 0.1 µM / activity at 1 µM / activity at 10 µM: Homo sapiens, 72 h, read-out: Invasion rates (%) of each drug’s multiple concentrations. How it is done:
The invasion assay was performed as previously described. […] The plates were then centrifuged at 320 g for 4 min to cluster cells in the bottom of wells and incubated for 3 days. On the fourth day, 40 μL medium was removed from each well, 40 μL of the matrigel-medium mixture was added to each well, and cells were cultured for another 3 days. […] At the end of the incubation, images were taken using a phase contrast microscope (Eclipse Ti2, Nikon, Tokyo, Japan) with 10× object lenses, and the total area of cells and the core sphere area of cells (Fig. 1a) were measured using the Image J software. The invading area was calculated using the following formula: invasion area = total area of cells – core sphere area.
For drug screening, drugs were added to the matrigel-medium mixture when replacing the culture medium on day 4. For the initial round of screening, a final concentration of 10 μM was used for all drugs. Multiple drug concentrations were used for the second round of screening, including 0, 0.001, 0.01, 0.1, 1, and 10 μM. Duplicate wells were repeated for each concentration.

The mark [1] stands for this setting: 0.01 μM (first column so headed), secondary screening of 87 hit compounds (Table S1).
The mark [2] stands for this setting: 0.01 μM (first column so headed), third screening of 25 hit compounds (Table S2).
[3] abbreviates: 0.01 μM (second column so headed), secondary screening of 87 hit compounds (Table S1).
Setting [4] is: 0.01 μM (second column so headed), third screening of 25 hit compounds (Table S2).
[5] abbreviates: 0.1 μM, secondary screening of 87 hit compounds (Table S1).
Where [6] appears, read: 0.1 μM, third screening of 25 hit compounds (Table S2).
Setting [7] is: 1 μM, secondary screening of 87 hit compounds (Table S1).
The mark [8] stands for this setting: 1 μM, third screening of 25 hit compounds (Table S2).
Where [9] appears, read: 10 μM, secondary screening of 87 hit compounds (Table S1).
[10] abbreviates: 10 μM, third screening of 25 hit compounds (Table S2).

As for `CNC[C@H](O)[C@@H](O)[C@H](O)[C@H](O)CO.Nc1nc(-n2cc(C(=O)O)c(=O)c3cc(F)c(N4CC(O)C4)c(Cl)c32)c(F)cc1F` [Delafloxacin (meglumine)], the “Invasion rates (%) of each drug’s multiple concentrations (μM)” value (from here on “Invasion rates (%)”) is 85.63% under setting [1]; 93.02% under setting [2]; 84.75% under setting [3]; 86.37% under setting [4]; 73.78% under setting [5]; 82.73% under setting [6]. The “Invasion rates (%)” value worked out at 2.08% under setting [7], 1.96% under setting [8], 1.54% under setting [9] and 0.81% under setting [10].
Regarding `CN(C)[C@@H]1C(=O)C(C(N)=O)=C(O)[C@@]2(O)C(=O)C3=C(O)c4c(O)ccc(Cl)c4[C@@H](O)[C@H]3C[C@@H]12.Cl` [Demeclocycline (hydrochloride)], the “Invasion rates (%)” value reads like this: under setting [1], 92.92%; under setting [2], 93.85%; under setting [3], 97.24%; under setting [4], 95.74%; under setting [5], 81.08%; under setting [6], 89.49%. The “Invasion rates (%)” value is listed as 41.75% under setting [7], 2.65% under setting [8], 4.21% under setting [9] and 0.30% under setting [10].
For `Cc1ncc([N+](=O)[O-])n1C[C@@H](CN1CCOCC1)OP(=O)(O)O` [Dextrorotation nimorazole phosphate ester], the “Invasion rates (%)” value under setting [1] came out at 97.64%; the “Invasion rates (%)” value under setting [3] is recorded as 99.79%; the “Invasion rates (%)” value under setting [5] is reported as 97.40%; the “Invasion rates (%)” value under setting [7] worked out at 85.31%; the “Invasion rates (%)” value under setting [9] amounted to 35.28%.
Turning to `Cc1ncc([N+](=O)[O-])n1C` [Dimetridazole], the activity at 0.01 µM is, setting by setting: under setting [1], 95.7%; under setting [3], 97.8%. Also, the activity at 0.1 µM under setting [5] is 88.8%. Besides, the activity at 1 µM under setting [7] came to 71%. Also, the activity at 10 µM under setting [9] is 3.61%.
On to `CCCCCCCCCCCC[N+](C)(C)CCOc1ccccc1.[Br-]` [Domiphen (bromide)], for which the “Invasion rates (%)” value is, setting by setting: under setting [1], 89.87%; under setting [3], 94.08%; under setting [5], 85.67%; under setting [7], 77.63%; under setting [9], 66.00%.
On to `COc1cccc2c1C(=O)c1c(O)c3c(c(O)c1C2=O)C[C@@](O)(C(=O)CO)C[C@@H]3O[C@H]1C[C@H](N)[C@H](O)[C@H](C)O1.Cl` [Doxorubicin (hydrochloride)], for which the “Invasion rates (%)” value reads like this: under setting [1], 93.34%; under setting [3], 92.49%; under setting [5], 89.01%; under setting [9], 1.92%.
For `C[C@H]1c2cccc(O)c2C(O)=C2C(=O)[C@]3(O)C(O)=C(C(N)=O)C(=O)[C@@H](N(C)C)[C@@H]3[C@@H](O)[C@@H]21` [Doxycycline (hyclate)], the “Invasion rates (%)” value is given as 91.64% under setting [1]; 101.94% under setting [2]; 100.52% under setting [3]; 98.24% under setting [4]; 74.92% under setting [5]; 93.64% under setting [6]. Besides, the “Invasion rates (%)” value runs as follows: under setting [7], 3.13%; under setting [8], 5.76%; under setting [9], 1.59%; under setting [10], 1.58%.
Take `COc1cccc2c1C(=O)c1c(O)c3c(c(O)c1C2=O)C[C@@](O)(C(=O)CO)C[C@@H]3O[C@H]1C[C@H](N)[C@@H](O)[C@H](C)O1.Cl` [Epirubicin (hydrochloride)]: the “Invasion rates (%)” value is on record as 94.42% under setting [1]; 95.60% under setting [3]; 93.22% under setting [5]; 88.57% under setting [7]; 4.65% under setting [9].
On to `CCc1c(Cl)c(O)c(Cl)c(O)c1C(=O)O[C@H]1[C@H](O)[C@H](OC)[C@H](OC/C2=C\C=C\C[C@H](O)/C(C)=C/[C@H](CC)[C@@H](O[C@@H]3OC(C)(C)[C@@H](OC(=O)C(C)C)[C@H](O)[C@@H]3O)/C(C)=C/C(C)=C/C[C@@H]([C@@H](C)O)OC2=O)O[C@@H]1C` [Fidaxomicin], for which the activity at 0.01 µM reads like this: under setting [1], 100%; under setting [3], 103%. In addition, the activity at 0.1 µM under setting [5] amounted to 99.5%. For the same compound, the activity at 1 µM under setting [7] was 96%. In addition, the activity at 10 µM under setting [9] amounted to 41.5%.
With `CC(=O)O[C@H]1C[C@@]2(C)[C@@H](C[C@@H](O)[C@H]3[C@@]4(C)CC[C@@H](O)[C@@H](C)[C@@H]4CC[C@@]32C)/C1=C(\CCC=C(C)C)C(=O)[O-].[Na+]` [Fusidic acid (sodium salt)], the “Invasion rates (%)” value reads like this: under setting [1], 92.69%; under setting [3], 89.70%; under setting [5], 87.85%; under setting [7], 68.14%; under setting [9], 0.70%.
As to `COc1ccc2c3c1O[C@H]1C[C@@H](O)C=C[C@@]31CCN(C)C2` [Galanthamine], the activity at 0.01 µM under setting [1] came out at 86.8%. Moreover, the activity at 0.1 µM under setting [5] is 88.4%. Besides, under setting [7], the activity at 1 µM was found to be 83.3%. Further, the activity at 10 µM under setting [9] was 15.1%.
Regarding `CS(=O)(=O)O.C[C@H]1NCc2cc(-c3ccc4c(=O)c(C(=O)O)cn(C5CC5)c4c3OC(F)F)ccc21.O` [Garenoxacin (Mesylate hydrate)], the “Invasion rates (%)” value was 89.65% under setting [1]; 95.96% under setting [3]; 85.98% under setting [5]; 96.56% under setting [7]; 48.76% under setting [9].
In the case of `COc1cc2ncnc(Nc3ccc(F)c(Cl)c3)c2cc1OCCCN1CCOCC1` [Gefitinib], the activity at 0.01 µM under setting [1] came out at 86.8% and the activity at 0.01 µM under setting [3] was found to be 85.3%. Also, under setting [5], the activity at 0.1 µM was determined as 77.8%. Under setting [7], the activity at 1 µM was determined as 60.2%. Under setting [9], the activity at 10 µM was 27.4%.
Regarding `CC(=O)[C@]1(O)Cc2c(O)c3c(c(O)c2[C@@H](O[C@H]2C[C@H](N)[C@H](O)[C@H](C)O2)C1)C(=O)c1ccccc1C3=O.Cl` [Idarubicin (hydrochloride)], the “Invasion rates (%)” value reads like this: under setting [1], 80.06%; under setting [2], 95.32%; under setting [3], 88.67%; under setting [4], 98.46%; under setting [5], 83.45%; under setting [6], 100.06%. For the same compound, the “Invasion rates (%)” value under setting [7] was 7.74%, the “Invasion rates (%)” value under setting [8] came out at 1.25%, the “Invasion rates (%)” value under setting [9] is listed as 3.85% and the “Invasion rates (%)” value under setting [10] is 1.34%.
